Our source for the EC (1.5-fold) and maximal fold induction values is patent publication US9975900B2, “Substituted imidazo[1,2-α]pyrazines for treating spinal muscular atrophy” (Hoffmann-La Roche Inc., priority 2014, dated 2018).

The subject of test [1] is full length SMN2 minigene mRNA (HEK293H cells stably transfected with the SMN2-A minigene construct). In words: RT-qPCR assay for SMN2 minigene pre-mRNA splicing in cultured cells. The class given is cell-based. To be noted: Homo sapiens, HEK293-H, 24 hours, 7-point concentration curve, concentration giving 1.5-fold FL SMN2mini mRNA vs vehicle, read-out: EC1.5x minigene (EC1.5x concentration for production of full length SMN2 minigene mRNA). The method, then:
The reverse transcription-quantitative PCR-based (RT-qPCR) assay is used to quantify the level of the full length SMN2 minigene (referred to herein by the term “FL SMN2mini”) mRNA containing SMN2 exon 7 in a HEK293H cell line stably transfected with said minigene and treated with a test compound. Materials used and respective sources are listed below in Table 1.
The SMN2-A minigene construct was prepared as described in International Patent Application WO2009/151546A1 page 145 paragraph [00400] to page 147 paragraph [00412] (incl. FIG. 1 and FIG. 3 therein).
HEK293H cells stably transfected with the SMN2-A minigene construct (10,000 cells/well) are seeded in 200 μL of cell culture medium (DMEM plus 10% FBS, with 200 μg/mL hygromycin) in 96-well flat-bottom plates and the plate is immediately swirled to ensure proper dispersal of cells and the formation of an even monolayer of cells. Cells are allowed to attach for 6 hours. Test compounds are serially diluted 3.16-fold in 100% DMSO to generate a 7-point concentration curve. A solution of test compound (1 μL, 200× in DMSO) is added to each cell-containing well and the plate is incubated for 24 hours in a cell culture incubator (37° C., 5% CO2, 100% relative humidity). 2 replicates are prepared for each test compound concentration. The cells are then lysed in the Cells-To-Ct lysis buffer and the lysate is stored at −80° C.
Full length SMN2-A minigene and GAPDH mRNA are quantified using the primers and probes referenced in Table 2. Primer SMN Forward A (SEQ ID NO.1) hybridizes to a nucleotide sequence in exon 7 (nucleotide 22 to nucleotide 40), primer SMN Reverse A (SEQ ID NO.2) hybridizes to a nucleotide sequence in the coding sequence of Firefly luciferase, SMN Probe A (SEQ ID NO.3) hybridizes to a nucleotide sequence in exon 7 (nucleotide 50 to nucleotide 54) and exon 8 (nucleotide 1 to nucleotide 21). The combination of these three oligonucleotides detects only SMN1 or SMN2 minigenes (RT-qPCR) and will not detect endogenous SMN1 or SMN2 genes.
The SMN forward and reverse primers are used at final concentrations of 0.4 μM. The SMN probe is used at a final concentration of 0.15 μM. The GAPDH primers are used at final concentrations of 0.2 μM and the probe at 0.15 μM.
The SMN2-minigene GAPDH mix (15 μL total volume) is prepared by combining 7.5 of 2×RT-PCR buffer, 0.4 μL of 25×RT-PCR enzyme mix, 0.75 μL of 20× GAPDH primer-probe mix, […] of water, 2 μL of 10-fold diluted cell lysate, 0.06 μL of 100 μM SMN forward primer, 0.06 μL of 100 μM SMN reverse primer, and 0.225 μL of 100 μM SMN probe.
PCR is carried out at the following temperatures for the indicated time: Step 1: 48° C. (15 min); Step 2: 95° C. (10 min); Step 3: 95° C. (15 sec); Step 4: 60° C. (1 min); then repeat Steps 3 and 4 for a total of 40 cycles.
Each reaction mixture contains both SMN2-A minigene and GAPDH primers/probe sets (multiplex design), allowing simultaneous measurement of the levels of two transcripts.
The increase in the abundance of the FL SMN2mini mRNA relative to that in cells treated with vehicle control is determined from real-time PCR data using a modified ΔΔCt method (as described in Livak and Schmittgen, Methods, 2001, 25:402-8). The amplification efficiency E is calculated from the slope of the amplification curve for FL SMN2mini and GAPDH individually. The abundance of FL SMN2mini and GAPDH mRNA are then calculated as (1+E)^−Ct, where Ct is the threshold value for each amplicon. The abundance of FL SMN2mini mRNA is normalized to GAPDH mRNA abundance. The normalized FL SMN2mini mRNA abundance from test compound-treated samples is then divided by normalized FL SMN2mini mRNA abundance from vehicle-treated cells to determine the level of FL SMN2mini mRNA relative to vehicle control. […]

For test [2], the system named is SMN protein in SMA patient fibroblast cells (GM03813). In words: SMN protein assay (HTRF) in cultured cells. The class given is cell-based. To be noted: Homo sapiens, SMA Type 1 patient fibroblasts, 48 hours; for EC (1.5-fold): 7-point concentration curve, concentration giving 1.5 times SMN protein vs vehicle, read-out: EC1.5x SMN protein (EC1.5x concentration for SMN protein expression); for maximal fold induction: fold increase relative to vehicle control, read-out: Max. fold increase of SMN protein. The method, then: The SMN HTRF (homogeneous time resolved fluorescence) assay is used to quantify the level of SMN protein in SMA patient fibroblast cells treated with test compounds. Materials used and respective sources are listed below in Table 4.
Cells are thawed and cultured in DMEM-10% FBS for 72 hours. Cells are trypsinized, counted and re-suspended to a concentration of 25,000 cells/mL in DMEM-10% FBS. The cell suspensions are plated at 5,000 cells per well in a 96 well microtiter plate and incubated for 3 to 5 hours. Test compounds are serially diluted 3.16-fold in 100% DMSO to generate a 7-point concentration curve. 1 μL of test compound solution is transferred to cell-containing wells and cells are incubated for 48 hours in a cell culture incubator (37° C., 5% CO2, 100% relative humidity). Triplicate samples are set up for each test compound concentration. After 48 hours, the supernatant is removed from the wells and 25 μL of the RIPA lysis buffer, containing protease inhibitors, is added to the wells and incubated with shaking at room temperature for 1 hour. 25 μL of the diluent is added and then 35 μL of the resulting lysate is transferred to a 384-well plate, where each well contains 5 μL of the antibody solution (1:100 dilution of anti-SMN d2 and anti-SMN cryptate in SMN reconstitution buffer). The plate is centrifuged for 1 minute to bring the solution to the bottom of the wells, then incubated overnight at room temperature. Fluorescence for each well of the plate at 665 nm and 620 nm is measured on an EnVision multilabel plate reader (Perkin-Elmer).
The normalized fluorescence signal is calculated for each sample, Blank and vehicle control well by dividing the signal at 665 nm by the signal at 620 nm. Normalizing the signal accounts for possible fluorescence quenching due to the matrix effect of the lysate. The ΔF value (a measurement of SMN protein abundance as a percent value) for each sample well is calculated by subtracting the normalized average fluorescence for the Blank control wells from the normalized fluorescence for each sample well, then dividing this difference by the normalized average fluorescence for the Blank control wells and multiplying the resulting value by 100. The ΔF value for each sample well represents the SMN protein abundance from test compound-treated samples. The ΔF value for each sample well is divided by the ΔF value for the vehicle control wells to calculate the fold increase in SMN protein abundance relative to the vehicle control. Table 5 provides EC1.5× concentrations for SMN protein expression that was obtained from the 7-point concentration data generated according to the above procedure for particular compounds of the present invention.
Table 6 provides the maximum fold increase of SMN protein that was obtained from the 7-point concentration data generated according to the above procedure for particular compounds of the present invention
(In general: Time-resolved FRET reads energy transfer from a long-lived donor to a nearby acceptor.)

Counter-ions that a name gives are not always drawn.

As to `Cc1cn2cc(NC(=O)c3ccc(N4CCNCC4)cc3)ncc2n1` [Example 2, N-(2-methylimidazo[1,2-a]pyrazin-6-yl)-4-piperazin-1-ylbenzamide hydrochloride], the EC (1.5-fold) in test [1] amounted to 1.05 µM. In test [2], the EC (1.5-fold) is 2.25 µM and the maximal fold induction stood at 1.74.
The matching figures for `Cc1cn2cc(NC(=O)c3ccc(N4CCN[C@H](C)C4)cc3F)nc(C3CC3)c2n1` [Example 23, N-(8-cyclopropyl-2-methylimidazo[1,2-a]pyrazin-6-yl)-2-fluoro-4-[(3R)-3-methylpiperazin-1-yl]benzamide hydrochloride]: 0.0268 µM, 0.0622 µM and 1.72.
For `Cc1cn2cc(NC(=O)c3c(F)cc(N4CCN[C@H](C)C4)cc3F)nc(C)c2n1` [Example 14, N-(2,8-dimethylimidazo[1,2-a]pyrazin-6-yl)-2,6-difluoro-4-[(3R)-3-methylpiperazin-1-yl]benzamide], in that order: 0.0097 µM, 0.124 µM and 1.61.
The matching figures for `CC[C@@H]1CN(c2ccc(C(=O)Nc3cn4cc(C)nc4c(C4CC4)n3)c(F)c2)CCN1` [Example 36, N-(8-cyclopropyl-2-methylimidazo[1,2-a]pyrazin-6-yl)-4-[(3R)-3-ethylpiperazin-1-yl]-2-fluorobenzamide hydrochloride]: 0.0534 µM, 1.09 µM and 1.53.
Regarding `CCOc1cc(N2CCC(N3CC(OC)C3)CC2)ccc1C(=O)Nc1cn2cc(C)nc2c(C)n1` [Example 49, N-(2,8-dimethylimidazo[1,2-a]pyrazin-6-yl)-2-ethoxy-4-[4-(3-methoxyazetidin-1-yl)piperidin-1-yl]benzamide], the EC (1.5-fold) was 0.223 µM in test [1] and 1.98 µM in test [2]. For the same molecule, the maximal fold induction in test [2] is 1.51.
As to `COc1cc(N2CCN[C@H](C)C2)ccc1C(=O)Nc1cn2cc(C)nc2cn1` [Example 38, 2-methoxy-N-(2-methylimidazo[1,2-a]pyrazin-6-yl)-4-[(3R)-3-methylpiperazin-1-yl]benzamide], in test [1], the EC (1.5-fold) was 0.0578 µM. Besides, in test [2], the EC (1.5-fold) was 0.206 µM and the maximal fold induction is 1.74.
For `Cc1cn2cc(NC(=O)c3ccc(N4CCN[C@H](C)C4)cc3F)nc(C)c2n1` [Example 11, N-(2,8-dimethylimidazo[1,2-a]pyrazin-6-yl)-2-fluoro-4-[(3R)-3-methylpiperazin-1-yl]benzamide], in that order: 0.0164 µM, 0.0522 µM and 1.8.
Regarding `Cc1cn2cc(NC(=O)c3ccc(N4CCNC(C)(C)C4)cc3F)ncc2n1` [Example 35, 4-(3,3-dimethylpiperazin-1-yl)-2-fluoro-N-(2-methylimidazo[1,2-a]pyrazin-6-yl)benzamide hydrochloride], in test [1], the EC (1.5-fold) is 0.0317 µM. Moreover, in test [2], the EC (1.5-fold) worked out at 0.505 µM and the maximal fold induction was 2.16.
Consider `CCOc1cc(N2C[C@@H](C)N[C@@H](C)C2)ccc1C(=O)Nc1cn2cc(C)nc2cn1` [Example 10, 4-[(3S,5R)-3,5-dimethylpiperazin-1-yl]-2-ethoxy-N-(2-methylimidazo[1,2-a]pyrazin-6-yl)benzamide], for which, in test [1], the EC (1.5-fold) worked out at 0.0383 µM. In addition, in test [2], the EC (1.5-fold) is 0.13 µM and the maximal fold induction is 1.91.
For `CCOc1cc(N2CCN[C@H](C)C2)ccc1C(=O)Nc1cn2cc(C)nc2cn1` [Example 5, 2-ethoxy-N-(2-methylimidazo[1,2-a]pyrazin-6-yl)-4-[(3R)-3-methylpiperazin-1-yl]benzamide], the EC (1.5-fold) turned out to be 0.041 µM in test [1] and 0.185 µM in test [2]. Besides, the maximal fold induction in test [2] was 1.9.
The matching figures for `CCc1nc(NC(=O)c2ccc(N3CCN[C@H](C)C3)cc2F)cn2cc(C)nc12` [Example 21, N-(8-ethyl-2-methylimidazo[1,2-a]pyrazin-6-yl)-2-fluoro-4-[(3R)-3-methylpiperazin-1-yl]benzamide hydrochloride]: 0.0204 µM, 0.162 µM and 1.8.
For `COc1cc(N2CCNC(C)(C)C2)ccc1C(=O)Nc1cn2cc(C)nc2cn1` [Example 41, 4-(3,3-dimethylpiperazin-1-yl)-2-methoxy-N-(2-methylimidazo[1,2-a]pyrazin-6-yl)benzamide], in that order: 0.0464 µM, 0.242 µM and 2.05.
The matching figures for `Cc1cn2cc(NC(=O)c3ccc(N4CCN5CCC[C@@H]5C4)cc3F)ncc2n1` [Example 7, 4-[(8aR)-3,4,6,7,8,8a-hexahydro-1H-pyrrolo[1,2-a]pyrazin-2-yl]-2-fluoro-N-(2-methylimidazo[1,2-a]pyrazin-6-yl)benzamide]: 0.0484 µM, 0.872 µM and 1.64.
As for `CC[C@@H]1CN(c2ccc(C(=O)Nc3cn4cc(C)nc4cn3)c(OC)c2)CCN1` [Example 40, 4-[(3R)-3-ethylpiperazin-1-yl]-2-methoxy-N-(2-methylimidazo[1,2-a]pyrazin-6-yl)benzamide], the EC (1.5-fold) in test [1] was found to be 0.038 µM. Further, in test [2], the EC (1.5-fold) was 0.388 µM and the maximal fold induction came to 1.93.
